PMC12172450, “Moonlighting activity of threonine synthase in cyanobacterial cell death” (mSystems, 2025)

How the values were obtained:
[1] = target: T1, ThrC (threonine synthase; ThrC-His6) (Microcystis aeruginosa, UniProt A0AB33BYK2); test: yellow colour of purified enzyme; PLP-dependent threonine deamination spectra; type: binding; settings: threonine as substrate; 50 mM PIPES pH 8.0
T1 construct: gene BH695_2536; full-length thrC (1,304 bp), N-terminal His6 tag from pET-28b(+), E. coli BL21(DE3), Ni-NTA purified; tag cleavage not mentioned
T1 sequence (A0AB33BYK2 entry or part of it): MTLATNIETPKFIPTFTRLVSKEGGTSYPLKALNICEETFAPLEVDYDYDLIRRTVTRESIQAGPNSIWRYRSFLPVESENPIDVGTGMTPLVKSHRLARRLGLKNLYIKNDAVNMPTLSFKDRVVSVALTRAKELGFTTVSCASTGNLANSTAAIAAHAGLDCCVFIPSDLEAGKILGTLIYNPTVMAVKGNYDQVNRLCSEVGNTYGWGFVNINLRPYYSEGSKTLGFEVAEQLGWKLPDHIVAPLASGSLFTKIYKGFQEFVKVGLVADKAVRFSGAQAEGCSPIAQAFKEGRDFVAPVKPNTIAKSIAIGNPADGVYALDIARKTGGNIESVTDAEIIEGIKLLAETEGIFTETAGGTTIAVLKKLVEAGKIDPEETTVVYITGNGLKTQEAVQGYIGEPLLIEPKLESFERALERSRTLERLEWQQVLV

[2] = target: T1, ThrC (threonine synthase; ThrC-His6); test: in vitro threonine deaminase assay, inhibition; type: biochemical; settings: threonine as substrate; concentration-dependent inhibition
[3] = target: T1, ThrC (threonine synthase; ThrC-His6); test: alpha-ketobutyrate formation (semicarbazide / […],4-DNPH), threonine deaminase activity, sigmoidal fit; type: biochemical; settings: 50 mM PIPES pH 8.0, 100 mM KCl, 0.1 mM EDTA, 1 mM DTT, PLP, 25 °C; sigmoidal kinetics

SMILES | inhibition [2] | other results
Cc1ncc(COP(=O)(O)O)c(C=O)c1O [PLP] |  | yellow colour of purified enzyme; PLP-dependent threonine deamination spectra [1]: threonine synthase could utilize PLP as a catalyst to degrade threonine into keto acids
C[C@H](N)C(=O)O [alanine] | alanine and isoleucine, also exhibited concentration-dependent inhibitory activity against aKB-generating deaminases | 
CC[C@H](C)[C@H](N)C(=O)O [isoleucine] | alanine and isoleucine, also exhibited concentration-dependent inhibitory activity against aKB-generating deaminases | 
C[C@@H](O)[C@H](N)C(=O)O [threonine] |  | K0.5 [3]: The sigmoidal kinetics of ThrC as a threonine deaminase were analyzed in the presence of threonine
